From US20120077802A1 (SUNOVION PHARMACEUTICALS INC., priority 2009, published 2012)

molecular target: T1, human histamine H3 receptor (Homo sapiens, UniProt Q9Y5N1); experiment: H3 GTPγS assay (SPA method), histamine H3 in vitro assay; assay type: biochemical; conditions: GTPγ[35S] SPA, membranes of cells expressing human H3 receptor; in one embodiment HCl salts tested; read-out: Potency (functional potency as indicated by IC50)
T1 construct: host or cells: cells expressing the human H3 receptor
Experimental: H3 GTPγS assay (SPA method) was performed at EuroScreen (Belgium, ES-392-C) using conventional methods. Briefly, cells expressing the human histamine H3 receptor were homogenized in 15 mM Tris-HCl pH 7.5, 2 mM MgCl2, 0.3 mM EDTA, and 1 mM EGTA. Membranes were washed twice in the above tris buffer, collected by centrifugation (40,000×g, 25 min), and re-suspended in 75 mM Tris-HCl pH 7.5, 12.5 mM MgCl2, 0.3 mM EDTA, 1 mM EGTA, and 250 mM sucrose. Membranes were frozen in liquid nitrogen until use. On the day of the assay, membranes were thawed and diluted in assay buffer (20 mM HEPES pH 7.4, 100 mM NaCl, 10 μg/ml saponin, 1 mM MgCl2) to give 500 μg/ml and mixed (v/v) with GDP in assay buffer for a final GDP concentration of 10 μM and incubated on ice for at least 15 min. PVT-WGA beads (Amersham, RPNQ001) were diluted in assay buffer at 50 mg/mL and mixed with GTPγ[^35S] (Amersham, SJ1308) diluted in assay buffer to give ˜25,000 dpm/10 μL, and mixed vol/vol just before the start of the reaction. The reaction was started by adding 50 μL of test compound, 20 μL of the membranes:GDP mix, 10 μL of buffer, and 20 μL of the GTPγ[^35S]:beads mix in a 96 well plate Optiplate™ (PerkinElmer, 6005299) covered with topseal (TopCount™, PerkinElmer), mixed with an orbital shaker for 2 min, incubated for 1 hour at room temperature, centrifuged for 10 min at 2000 rpm, incubated for 1 h at room temperature, and counted for 1 min in a TopCount™ reader (PerkinElmer). Dose response curves and IC50 values (concentration to inhibit the reaction by 50%) were calculated by nonlinear regression using XLfit software (IDBS).
For antagonists testing, 10 μL of a reference agonist (R-γ-Me-Histamine) instead of 10 μL buffer was added at a concentration corresponding to the EC80 (30 nM). Control ligands were R-γ-Me-Histamine (Tocris, 0569), Imetit (Sigma, I-135), Thioperamide (Tocris, 0644), and Clobenpropit (Tocris, 0754) diluted in assay buffer.
The compounds provided herein were tested in the histamine H3 in vitro assay. In one embodiment, the respective HCl salts of the compounds provided herein were prepared using standard chemical procedures and tested in the histamine H3 in vitro assay.

T1 sequence (Q9Y5N1 whole entry): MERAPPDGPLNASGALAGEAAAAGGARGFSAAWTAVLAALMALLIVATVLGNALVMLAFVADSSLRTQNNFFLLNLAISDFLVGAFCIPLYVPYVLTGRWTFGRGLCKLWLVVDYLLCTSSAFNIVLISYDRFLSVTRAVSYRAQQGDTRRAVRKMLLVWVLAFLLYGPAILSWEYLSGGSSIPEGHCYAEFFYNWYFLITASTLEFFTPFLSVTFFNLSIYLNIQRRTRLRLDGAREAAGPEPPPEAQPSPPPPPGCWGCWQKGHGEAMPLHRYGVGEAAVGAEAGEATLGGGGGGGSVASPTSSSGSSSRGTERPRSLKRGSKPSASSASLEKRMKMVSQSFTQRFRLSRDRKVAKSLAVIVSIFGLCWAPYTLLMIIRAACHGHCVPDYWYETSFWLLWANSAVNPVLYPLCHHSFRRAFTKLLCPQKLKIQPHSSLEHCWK

`N#Cc1ccc(-c2ccc3c(c2)CC2(CCN4CCCCC4C2)O3)cc1` (stereo not shown) [Compound 74, 4-(-1′,3′,4′,6′,7′,8′,9′,9a′-Octahydro-3H-spiro[benzofuran-2,2′-quinolizin]-5-yl)benzonitrile] and `c1cc2c(cc1N1CCCCC1)OC1(CCCN(C3CCC3)CC1)C2` (stereo not shown) [Compound 71, 1-Cyclobutyl-6′-(piperidin-1-yl)-3′H-spiro[azepane-4,2′-benzofuran]] cannot be ordered by IC50: ≤ 0.01 µM for the first, ≤ 0.1 µM for the second.

`CN1CCN(c2ccc3c(c2)CC2(CCN(C4CCC4)CC2)O3)CC1` [Compound 33, 1′-Cyclobutyl-5-(4-methylpiperazin-1-yl)-3H-spiro[benzofuran-2,4′-piperidine]] and `c1cc2nc(-c3ccc4c(c3)CC3(CCN(C5CCC5)CC3)O4)ccc2[nH]1` [Compound 56, 1′-Cyclobutyl-5-(1H-pyrrolo[3,2-b]pyridin-5-yl)-3H-spiro[benzofuran-2,4′-piperidine]] cannot be ordered by IC50: ≤ 0.01 µM for the first, ≤ 0.01 µM for the second.

`c1cc2ncc(-c3ccc4c(c3)CC3(CCN(C5CCC5)CC3)O4)cc2[nH]1` [Compound 59, 1′-Cyclobutyl-5-(1H-pyrrolo[3,2-b]pyridin-6-yl)-3H-spiro[benzofuran-2,4′-piperidine]] and `CC(=O)Nc1ccc(-c2ccc3c(c2)CC2(CCN(C4CCN(C)CC4)CC2)O3)cc1` [Compound 9, N-(4-(1′-(1-Methylpiperidin-4-yl)-3H-spiro[benzofuran-2,4′-piperidine]-5-yl)phenyl)acetamide] cannot be ordered by IC50: ≤ 0.01 µM for the first, ≤ 0.1 µM for the second.

`c1ccc2c(c1)CC1(CCN(C3CCC3)CC1)O2` [Compound 1, 1′-Cyclobutyl-3H-spiro[benzofuran-2,4′-piperidine]] and `N#Cc1ccc(-c2ccc3c(c2)CC2(CCN(C4CCOCC4)CC2)O3)cc1` [Compound 19, 4-(1′-(Tetrahydro-2H-pyran-4-yl)-3H-spiro[benzofuran-2,4′-piperidine]-5-yl)benzonitrile] cannot be ordered by IC50: ≤ 0.1 µM for the first, ≤ 0.1 µM for the second.

`c1cnc(-c2ccc3c(c2)CC2(CCN(C4CCC4)CC2)O3)cn1` [Compound 29, 1′-Cyclobutyl-5-(pyrazin-2-yl)-3H-spiro[benzofuran-2,4′-piperidine]] and `CN1CCC(N2CCC3(CC2)Cc2cc(Br)ccc2O3)CC1` [Compound 24, 5-Bromo-1′-(1-methylpiperidin-4-yl)-3H-spiro[benzofuran-2,4′-piperidine]] cannot be ordered by IC50: ≤ 0.01 µM for the first, ≤ 1 µM for the second.

`Clc1ccc2c(c1)OC1(CCCN(C3CCC3)CC1)C2` (stereo not shown) [Compound 67, 6′-Chloro-1-cyclobutyl-3′H-spiro[azepane-4,2′-benzofuran]] and `Brc1ccc2c(c1)CC1(CCN3CCCC3C1)O2` (stereo not shown) [Compound 89, 5-Bromo-2′,3′,5′,6′,8′,8a′-hexahydro-1′H,3H-spiro[benzofuran-2,7′-indolizine]] cannot be ordered by IC50: ≤ 1 µM for the first, ≤ 0.1 µM for the second.

`c1cn2cc(-c3ccc4c(c3)CC3(CCCN5CCCCC5C3)O4)ccc2n1` (stereo not shown) [Compound 84, 5-(imidazo[1,2-a]pyridin-6-yl)-2′,3′,4′,6′,7′,8′,10′,10a′-octahydro-1′H,3H-spiro[benzofuran-2,9′-pyrido[1,2-a]azepine]] and `N#Cc1ccc(-c2ccc3c(c2)CC2(CCCN4CCCCC4C2)O3)cc1` (stereo not shown) [Compound 86, 4-(2′,3′,4′,6′,7′,8′,10′,10a′-octahydro-1′H,3H-spiro[benzofuran-2,9′-pyrido[1,2-a]azepin]-5-yl)benzonitrile] cannot be ordered by IC50: ≤ 0.1 µM for the first, ≤ 0.01 µM for the second.

`Brc1ccc2c(c1)CC1(CCN(C3CCC3)CC1)O2` [Compound 23, 5-Bromo-1′-cyclobutyl-3H-spiro[benzofuran-2,4′-piperidine]] and “4-(1′,2′,3′,5′,6′,7′,9′,9a′-Octahydro-3H-spiro[benzofuran-2,8′-pyrrolo[1,2-a]azepin]-5-yl)benzonitrile and 4-(1′,2′,3′,5′,6′,8′,9′,9a′-octahydro-3H-spiro[benzofuran-2,7′-pyrrolo[1,2-a]azepin]-5-yl)benzonitrile [95/95a]” cannot be ordered by IC50: ≤ 1 µM for the first, ≤ 0.1 µM for the second.

`c1cc2c(cc1-c1ccc3cncn3c1)CC1(CCN(C3CCC3)CC1)O2` [Compound 57, 1′-Cyclobutyl-5-(imidazo[1,5-a]pyridin-6-yl)-3H-spiro[benzofuran-2,4′-piperidine]] and `c1cn(-c2ccc3c(c2)CC2(CCN(C4CCC4)CC2)O3)cn1` [Compound 31, 1′-Cyclobutyl-5-(1H-imidazol-1-yl)-3H-spiro[benzofuran-2,4′-piperidine]] cannot be ordered by IC50: ≤ 0.01 µM for the first, ≤ 0.01 µM for the second.

`CN1CCC(N2CCC3(CC2)Cc2cc(-c4ccc5[nH]ccc5c4)ccc2O3)CC1` [Compound 10, 5-(1H-Indol-5-yl)-1′-(1-methylpiperidin-4-yl)-3H-spiro[benzofuran-2,4′-piperidine]] and `COc1ccnc(-c2ccc3c(c2)OC2(CCN(C4CCC4)CC2)C3)n1` [Compound 36, 1′-Cyclobutyl-6-(4-methoxypyrimidin-2-yl)-3H-spiro[benzofuran-2,4′-piperidine]] cannot be ordered by IC50: ≤ 1 µM for the first, ≤ 0.1 µM for the second.

`c1cn2cc(-c3ccc4c(c3)CC3(CCCN(C5CCC5)CC3)O4)ccc2n1` (stereo not shown) [Compound 49, 1-Cyclobutyl-5′-(imidazo[1,2-a]pyridin-6-yl)-3′H-spiro[azepane-4,2′-benzofuran]] and `CC(C1CCC1)N1CCC2(CC1)Cc1cc(-c3ccc4[nH]ccc4c3)ccc1O2` (stereo not shown) [Compound 13, 1′-(1-Cyclobutylethyl)-5-(1H-indol-5-yl)-3H-spiro[benzofuran-2,4′-piperidine]] cannot be ordered by IC50: ≤ 0.1 µM for the first, ≤ 0.1 µM for the second.

`c1ccc2c(c1)CCN(Cc1ccc3c(c1)CC1(CCN4CCCCC4C1)O3)C2` (stereo not shown) [Compound 81, 5-((3,4-Dihydroisoquinolin-2(1H)-yl)methyl)-1′,3′,4′,6′,7′,8′,9′,9a′-octahydro-3H-spiro[benzofuran-2,2′-quinolizine]] and `CC(C1CCC1)N1CCC2(CC1)Cc1ccccc1O2` (stereo not shown) [Compound 4, 1′-(1-Cyclobutylethyl)-3H-spiro[benzofuran-2,4′-piperidine]] cannot be ordered by IC50: ≤ 0.01 µM for the first, ≤ 1 µM for the second.

`c1ccc2c(c1)ncn2-c1ccc2c(c1)C[C@]1(CCCN(C3CCC3)CC1)O2` (single isomer, unassigned) [Compound 52, 5′-(1H-Benzo[d]imidazol-1-yl)-1-cyclobutyl-3′H-spiro[azepane-4,2′-benzofuran]] and `c1cn2cc(-c3ccc4c(c3)CC3(CCN5CCCC5C3)O4)ccc2n1` (stereo not shown) [Compound 91, 5-(Imidazo[1,2-a]pyridin-6-yl)-2′,3′,5′,6′,8′,8a′-hexahydro-1′H,3H-spiro[benzofuran-2,7′-indolizine]] cannot be ordered by IC50: ≤ 0.1 µM for the first, ≤ 0.01 µM for the second.

`N#Cc1ccc(-c2ccc3c(c2)CC2(CCCN(C4CCC4)CC2)O3)cc1` (stereo not shown) [Compound 48, 4-(1-Cyclobutyl-3′H-spiro[azepane-4,2′-benzofuran]-5′-yl)benzonitrile] and `Cn1cc2ccc(-c3ccc4c(c3)CC3(CCN(C5CCC5)CC3)O4)cc2n1` [Compound 66, 1′-Cyclobutyl-5-(2-methyl-2H-indazol-6-yl)-3H-spiro[benzofuran-2,4′-piperidine]] cannot be ordered by IC50: ≤ 0.01 µM for the first, ≤ 0.01 µM for the second.

`c1cn2cc(-c3ccc4c(c3)CC3(CCN5CCCCC5C3)O4)ccc2n1` (stereo not shown) [Compound 77, 5-(Imidazo[1,2-a]pyridin-6-yl)-1′,3′,4′,6′,7′,8′,9′,9a′-octahydro-3H-spiro[benzofuran-2,2′-quinolizine]] and `c1cn2cc(-c3ccc4c(c3)CC3(CCC5CCCCN5CC3)O4)ccc2n1` (stereo not shown) [Compound 83, 5-(Imidazo[1,2-a]pyridin-6-yl)-2′,3′,4′,6′,7′,9′,10′,10a′-octahydro-1′H,3H-spiro[benzofuran-2,8′-pyrido[1,2-a]azepine]] cannot be ordered by IC50: ≤ 0.01 µM for the first, ≤ 0.1 µM for the second.

`CN1CCC(N2CCC3(CC2)Cc2cc(-c4ccc(C#N)cc4)ccc2O3)CC1` [Compound 8, 4-(1′-(1-Methylpiperidin-4-yl)-3H-spiro[benzofuran-2,4′-piperidine]-5-yl)benzonitrile] and `CC(C1CCC1)N1CCC2(CC1)Cc1cc(-c3ccc(CN)cc3)ccc1O2` (stereo not shown) [Compound 16, (4-(1′-(1-Cyclobutylethyl)-3H-spiro[benzofuran-2,4′-piperidine]-5-yl)phenyl)methanamine] cannot be ordered by IC50: ≤ 0.1 µM for the first, ≤ 0.01 µM for the second.

With `Cc1cn2cc(-c3ccc4c(c3)CC3(CCN(C5CCC5)CC3)O4)ccc2n1` [Compound 54, 1′-Cyclobutyl-5-(2-methylimidazo[1,2-a]pyridin-6-yl)-3H-spiro[benzofuran-2,4′-piperidine]] the IC50 was ≤ 0.01 µM.

same assay, conditions: histamine H3 in vitro assay; read-out: IC50 values

For `Brc1ccc2c(c1)CC1(CCN(Cc3c[nH]cn3)CC1)O2` [Compound 26, 1′-((1H-Imidazol-4-yl)methyl)-5-bromo-3H-spiro[benzofuran-2,4′-piperidine]], the IC50 was > 1 µM.
